The target in assay [1] is T1, récepteurs adrénergiques β2 du muscle trachéal de cobaye (Cavia porcellus, UniProt Q8K4Z4).
T1 construct: du muscle trachéal de cobaye; from tissue; host or cells: guinea pig tracheal muscle
Nature of the assay: Antagonism of the bronchodilator effects of isoprenaline on isolated tracheal muscle. Particulars: guinea-pig tracheal muscle; for Kb: β2, antagonism of isoprenaline, read-out: pA2 (converted); for INTERFERENCE AVEC LES RECEPTEURS ADRENERGIQUES β2: result in words. The source says:
(§1) L'activité pharmacologique des composés de l'invention a été révélée par recherche d'une interférence avec les récepteurs adrénergiques β1, β2 et α in vitro, conformément aux protocoles expérimentaux ci-après.
Récepteurs adrénergiques β2 : on recherche l'antagonisme des effets bronchodilatateurs de l'isoprénaline sur les récepteurs p2 du muscle trachéal de cobaye.
(§2) Les résultats sont exprimés dans le tableau I par les paramètres usuels de pharmacologie moléculaire, selon les critères utilisés par Van Rossum [Arch. Int.

In assay [2] the test system is Récepteurs adrénergiques α. Nature of the assay: Interference with noradrenaline-induced contraction (cumulative doses) of isolated vas deferens. Particulars: rat vas deferens; for pA2: noradrenaline contraction; for INTERFERENCE AVEC LES RECEPTEURS ADRENERGIQUES α: result in words.
Text: as §1
Récepteurs adrénergiques α : on étudie l'interférence des composés de l'invention sur la contraction du vas déferens isolé du rat, provoquée par des doses cumulatives de noradrénaline.
as §2

Assay [3] deals with T2, récepteurs β1 de l'oreillette gauche de cobaye (Cavia porcellus, UniProt H0W3H1).
T2 construct: l'oreillette gauche de cobaye stimulée électriquement; from tissue; host or cells: guinea pig left atrium, electrically stimulated
T2 sequence (H0W3H1 1-470): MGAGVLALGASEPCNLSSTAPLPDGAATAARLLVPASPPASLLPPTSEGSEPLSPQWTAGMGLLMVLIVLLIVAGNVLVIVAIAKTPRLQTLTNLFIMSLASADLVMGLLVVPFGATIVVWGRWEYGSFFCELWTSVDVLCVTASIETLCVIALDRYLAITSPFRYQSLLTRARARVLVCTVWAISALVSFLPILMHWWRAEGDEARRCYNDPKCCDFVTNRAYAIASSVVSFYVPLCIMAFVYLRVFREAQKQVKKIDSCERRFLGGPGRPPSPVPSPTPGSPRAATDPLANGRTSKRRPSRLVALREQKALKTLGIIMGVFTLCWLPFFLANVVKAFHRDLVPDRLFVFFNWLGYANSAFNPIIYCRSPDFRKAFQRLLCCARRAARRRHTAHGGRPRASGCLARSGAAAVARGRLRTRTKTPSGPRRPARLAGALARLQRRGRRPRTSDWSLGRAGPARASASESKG
Nature of the assay: Antagonism of the positive inotropic effect of isoprenaline on electrically stimulated isolated left atrium. Conditions: β1, guinea-pig left atrium; for Kb: antagonism of isoprenaline, read-out: pA2 (converted).
Text: as §1
(§3) Récepteurs adrénergiques β1 : on recherche l'antagonisme de l'effet inotrope positif de l'isoprénaline sur les récepteurs β1 de l'oreillette gauche de cobaye stimulée électriquement.
as §2

Assay [4] relates to récepteurs β1 de l'oreillette gauche de cobaye. The assay is described as above. Conditions: for cardiosélectivité: β1 versus β2, in words.
Text: as §1, §3, §2

Assay [5] deals with souris. Nature of the assay: Chemical stimulus analgesia test (Siegmund; abdominal cramps). In kind it is in vivo. Conditions: Mus musculus, po; test de stimulus chimique; par voie orale chez la souris; read-out: DE 50 (dose qui inhibe de 50 % le nombre de crampes abdominales). How it is done: Dans le test de stimulus chimique [SIEGMUND E., CADMUS R. GO LU - Proc. Soc. Exp. Biol. Med. 95, 729-731, (1957)] la DE 50 de ce composé - qui représente la dose qui inhibe de 50 % le nombre de crampes abdominales par rapport à celui du groupe des animaux de contrôle - est de 9 mg/kg par voie orale chez la souris.

The test system of assay [6] is souris. Nature of the assay: Thermal stimulus analgesia test (Eddy and Leimbach). In kind it is in vivo. Conditions: Mus musculus, po; test de stimulus thermique; par voie orale chez la souris; read-out: DE 50 (dose qui augmente de 50 % le temps de réaction). How it is done:
Dans le test de stimulus thermique [selon EDDY N.B., LEIMBACH D.J. Pharmacol. Exp. Ther., 107, 385-393, (1953)J la DE 50 de ce composé ― qui représente la dose de produit qui augmente de 50 % le temps de réaction des animaux traités par rapport à celui du groupe des animaux de contrôle - est de 4,4 mg/kg par voie orale chez la souris.

This is an account of results in patent EP0049203A1, “Benzoxazolinones substituted in the 6-position by an amino-alcohol or amino-ketone chain, their preparation and their therapeutic use” (RIOM LABORATOIRES- C.E.R.M. (Société Anonyme), priority 1980, dated 1982).

T1 sequence (Q8K4Z4 whole entry): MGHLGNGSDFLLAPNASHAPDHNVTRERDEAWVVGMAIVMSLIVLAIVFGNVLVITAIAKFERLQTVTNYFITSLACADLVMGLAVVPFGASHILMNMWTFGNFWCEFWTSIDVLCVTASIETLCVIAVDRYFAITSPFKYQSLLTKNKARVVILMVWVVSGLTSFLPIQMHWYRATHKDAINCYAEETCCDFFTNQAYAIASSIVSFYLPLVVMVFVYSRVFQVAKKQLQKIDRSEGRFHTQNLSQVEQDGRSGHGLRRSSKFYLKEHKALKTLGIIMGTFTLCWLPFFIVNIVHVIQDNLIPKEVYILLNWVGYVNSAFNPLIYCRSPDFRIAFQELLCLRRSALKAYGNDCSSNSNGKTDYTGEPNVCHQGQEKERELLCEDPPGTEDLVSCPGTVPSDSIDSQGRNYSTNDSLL

Consider `COc1ccccc1N1CCN([C@@H](C)[C@H](O)c2ccc3c(c2)oc(=O)n3C)CC1` (relative stereo) [compound 27, Erythro 2-[4-(2-méthoxyphényl)pipéraziny] 1-(3-méthyl-2-benzoxazolinon-6-yl) propanol], for which the Kb in assay [1] was 20900 nM. Further, in assay [2] (α), the pA2 is given as 6,14 ± 0,31 and the “pD'2” value was 4,73 ± 0,38. The Kb in assay [3] is 2240 nM.

For `C[C@@H]([C@H](O)c1ccc2c(c1)oc(=O)n2C)N1CCN(c2ccc(F)cc2)CC1` (relative stereo) [compound 28], the “INTERFERENCE AVEC LES RECEPTEURS ADRENERGIQUES β2” value in assay [1] was “Inactif”. The “INTERFERENCE AVEC LES RECEPTEURS ADRENERGIQUES α” value in assay [2] is reported as “Inactif”. Also, in assay [3], the Kb was 6170 nM and the “pD'2” value was found to be 4. In assay [4], the cardiosélectivité entry is reported as “importante, voire totale”.

Consider `C[C@@H]([C@H](O)c1ccc2c(c1)oc(=O)n2C)N1CCC(Cc2ccccc2)CC1` (relative stereo) [compound 29], for which the “INTERFERENCE AVEC LES RECEPTEURS ADRENERGIQUES β2” value in assay [1] is given as “Agoniste partiel”. In addition, in assay [3], the Kb was 2950 nM and the “pD'2” value is 4,50 ± 0,21.

For `COc1ccccc1N1CCN(CC(=O)c2ccc3c(c2)oc(=O)n3C)CC1` [compound 9, 2 [4-(2-méthoxyphényl)pipérazinyl] 1-(3-méthyl 2-benzoxazolinon-6-yl) éthanone], in assay [3], the Kb was 3980 nM and the “pD'2” value was 3,8.

For `CC(C(=O)c1ccc2c(c1)oc(=O)n2C)N1CCN(c2ccc(F)cc2)CC1` (stereo not drawn) [compound 10], the “INTERFERENCE AVEC LES RECEPTEURS ADRENERGIQUES β2” value in assay [1] is reported as “Agoniste partiel”. Moreover, the pA2 entry in assay [2] (α) is “pA2 = 5,3 ± 0,12”. Besides, in assay [3], the Kb was 1260 nM and the “pD'2” value is given as 4,59 ± 0,61.

With `Cn1c(=O)oc2cc(C(=O)CN3CCC(Cc4ccccc4)CC3)ccc21` [compound 13, 2-(4-benzyl-pipéridinyl) 1-(3-méthyl 2-benzoxazolinon-6-yl) éthanone], the Kb in assay [3] is 5010 nM.

For the molecule `NCC(O)c1ccc2[nH]c(=O)oc2c1` (stereo not drawn) [compound 16], the “INTERFERENCE AVEC LES RECEPTEURS ADRENERGIQUES β2” value in assay [1] was “Inactif”. For the same molecule, in assay [2] (α), the pA2 entry is recorded as “pA2 = 4,73 ± 0,52”. The Kb in assay [3] was 6310 nM.

As to `CC(C)NCC(O)c1ccc2[nH]c(=O)oc2c1` (stereo not drawn) [compound 18, 2-isopropylamino 1-(2-benzoxazolinon-6-yl) éthanol], the Kb in assay [1] is 776 nM; in assay [3], 34.7 nM. Further, in assay [2] (α), the pA2 result is on record as “pA2 = 6,03 ± 0,43”. Also, the cardiosélectivité result in assay [4] is listed as “de faible intensité”.

On to `CC(C)(C)NCC(O)c1ccc2[nH]c(=O)oc2c1` (stereo not drawn) [compound 19], for which the figures for the Kb in assay [1] and in assay [3] were 1480 nM and 224 nM, respectively. The “INTERFERENCE AVEC LES RECEPTEURS ADRENERGIQUES α” value in assay [2] was “Inactif”.

Take `COc1ccccc1N1CCN(CC(O)c2ccc3c(c2)oc(=O)n3C)CC1` (stereo not drawn) [compound 22]: the “INTERFERENCE AVEC LES RECEPTEURS ADRENERGIQUES β2” value in assay [1] is “Agoniste partiel”. In addition, in assay [2] (α), the pA2 result is recorded as “pA2 = 5,7 ± 0,25”. Also, in assay [3], the Kb is 2820 nM.

Regarding `Cn1c(=O)oc2cc(C(O)CN3CCC(Cc4ccccc4)CC3)ccc21` (stereo not drawn) [compound 25, 2-(4-benzylpipéradinyl) 1-(3-méthyl 2-benzoxazolinon-6-yl) éthanol], in assay [1], the “INTERFERENCE AVEC LES RECEPTEURS ADRENERGIQUES β2” value is reported as “Inactif”. Besides, in assay [3], the Kb was 2000 nM and the “pD'2” value is given as 4,2. For the same molecule, the cardiosélectivité entry in assay [4] was “importante, voire totale”.

On to `O=c1[nH]c2ccc(C(O)CN3CCN(c4ccc(F)cc4)CC3)cc2o1` (stereo not drawn) [compound 30], for which the “INTERFERENCE AVEC LES RECEPTEURS ADRENERGIQUES β2” value in assay [1] was “Inactif”. In assay [3], the Kb is 3980 nM. The cardiosélectivité entry in assay [4] was “importante, voire totale”.

Turning to `Cn1c(=O)oc2cc(C(O)CN3CCN(c4cccc(C(F)(F)F)c4)CC3)ccc21` (stereo not drawn) [compound 31, 2-[4-(3-trifluorométhyl)phénylpipérazinyl] 1-(3-méthyl 2-benzoxazolinon-6-yl) éthanol], the ED50 in the assay with souris [5] came to 9 mg/kg; in the assay with souris [6], 4.4 mg/kg. The “activité sur les récepteurs adrénergiques” value in assay [4] (adrenergic receptors in general (β1, β2, α), in words) is recorded as “n'a pas une activité de même niveau que les autres composés de l'invention”.
